Values of other authors, collected in patent publication US20130040971A1, “6-CYCLOALKYL-PYRAZOLOPYRIMIDINONES FOR THE TREATMENT OF CNS DISORDERS” (Boehringer Ingelheim International GmbH, priority 2011, published 2013).

target: human PDE9A (Homo sapiens, UniProt O76083); conditions: concentrations of up to 100 micromolar (μM)
Sequence (O76083 whole entry): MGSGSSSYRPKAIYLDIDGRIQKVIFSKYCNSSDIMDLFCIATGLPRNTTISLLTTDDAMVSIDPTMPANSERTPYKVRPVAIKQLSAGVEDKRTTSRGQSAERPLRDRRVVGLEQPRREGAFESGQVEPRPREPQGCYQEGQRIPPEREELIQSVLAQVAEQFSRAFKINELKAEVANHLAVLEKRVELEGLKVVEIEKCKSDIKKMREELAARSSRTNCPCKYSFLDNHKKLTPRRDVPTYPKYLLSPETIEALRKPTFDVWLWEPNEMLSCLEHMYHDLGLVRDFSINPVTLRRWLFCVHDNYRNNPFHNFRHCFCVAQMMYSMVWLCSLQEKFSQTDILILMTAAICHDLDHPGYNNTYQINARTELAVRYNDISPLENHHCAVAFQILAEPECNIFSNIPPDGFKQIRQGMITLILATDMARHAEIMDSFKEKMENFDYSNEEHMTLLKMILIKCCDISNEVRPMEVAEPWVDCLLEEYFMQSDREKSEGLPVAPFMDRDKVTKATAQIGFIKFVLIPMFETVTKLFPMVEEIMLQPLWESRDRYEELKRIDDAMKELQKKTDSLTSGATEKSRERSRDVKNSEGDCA

| inhibition on the isolated enzyme (human PDE9A) | Compound |
| --- | --- |
| no inhibition | CC(=O)Nc1ccc(-c2c[nH]c(=O)cn2)cc1 [SKF94120] |
| no inhibition | COc1ccc(C2CNC(=O)C2)cc1OC1CCCC1 (stereo not drawn) [rolipram] |
| no inhibition | CCOC(=O)C1=C[C@]2(CC)CCCN3CCc4c(n1c1ccccc41)[C@@H]32 [vinpocetine] |
| no inhibition | OCCN(CCO)c1nc(N2CCCCC2)c2nc(N(CCO)CCO)nc(N3CCCCC3)c2n1 [dipyridamole] |
| no inhibition | CC(C)Cn1c(=O)n(C)c(=O)c2[nH]cnc21 [IBMX] |

target: T1, Murine PDE9A (Mus musculus, UniProt O70628); conditions: concentrations below 200 micromolar
T1 sequence (O70628 1-534): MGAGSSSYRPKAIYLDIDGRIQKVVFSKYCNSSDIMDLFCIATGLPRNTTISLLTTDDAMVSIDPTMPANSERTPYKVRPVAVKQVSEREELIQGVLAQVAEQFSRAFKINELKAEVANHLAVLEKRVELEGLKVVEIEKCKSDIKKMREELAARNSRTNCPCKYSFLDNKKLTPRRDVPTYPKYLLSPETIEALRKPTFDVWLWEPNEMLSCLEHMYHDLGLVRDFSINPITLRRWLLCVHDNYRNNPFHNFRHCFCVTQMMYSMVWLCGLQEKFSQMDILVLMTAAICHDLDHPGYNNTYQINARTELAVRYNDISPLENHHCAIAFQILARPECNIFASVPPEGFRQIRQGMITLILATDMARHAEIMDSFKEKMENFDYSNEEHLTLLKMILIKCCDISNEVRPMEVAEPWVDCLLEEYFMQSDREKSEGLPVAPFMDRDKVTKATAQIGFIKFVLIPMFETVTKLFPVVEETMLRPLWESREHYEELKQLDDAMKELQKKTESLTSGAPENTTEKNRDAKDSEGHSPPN

| inhibition of murine PDE9A | Compound |
| --- | --- |
| not inhibited | CC(C)Cn1c(=O)n(C)c(=O)c2[nH]cnc21 [IBMX] |
